Source: US20110105397A1, “METHOD FOR TREATING HEART FAILURE WITH STRESSCOPIN-LIKE PEPTIDES” (priority 2009, published 2011)

Experiments:
[1] = tested on: anaesthetized male Sprague-Dawley rats; test: Hemodynamics in anaesthetized rats (IV bolus); type: in vivo, rat; settings: IV bolus 0.13 μg/kg to 44 μg/kg
Method: The hemodynamic profile of h-SCP (SEQ ID NO:1) was determined in sodium pentobarbital anaesthetized male Sprague-Dawley rats (FIG. 10). A SPR-320 Mikro-Tip® integrated catheter-tipped micro-manometer (Millar Instruments, Houston, Tex., U.S.A.) was placed in the right femoral artery for blood pressure measurements, and another one directly in the left ventricle for LV pressure measurement. […] The changes in hemodynamic parameters induced by h-SCP (SEQ ID NO:1, full circle in FIG. 10) were blocked by pretreatment with anti-sauvagine-30 (SEQ ID NO:118, open circle in FIG. 10).

[2] = tested on: anaesthetized mongrel dogs; test: Hemodynamic, angiographic, echocardiographic profile in anaesthetized healthy dogs, IV bolus; type: in vivo, dog
Method: The effects of h-SCP (SEQ ID NO: 1) on cardiovascular function were also assessed in anaesthetized mongrel dogs following intravenous bolus and 30-minute infusions. Hemodynamic and left ventricular systolic and diastolic function was evaluated using conventional hemodynamic, angiographic, echocardiographic, and radiographic methods with the results summarized in Table 16.

in vivo = settings: mongrel, dog, iv, [SEQ ID NO: 1] plasma concentration
Method: A sandwich immunoassay was developed using an affinity purified goat polyclonal antibody, specific to h-SCP that was pre-coated onto a microplate with integrated electrodes. h-SCP molecules present in the sample will bind to the capture polyclonal antibody coated on the plate. After washing away any unbound substances, a sulfo-tagged mouse monoclonal anti-h-SCP antibody was added. This conjugated antibody will bind to the h-SCP molecules captured on the microplate and the quantity of analyte was determined by electrochemiluminescence. The amount of signal generated is directly proportional to the h-SCP concentration in the sample or standard. The standard curve range is 3.125-1600 pg/mL with a quantifiable range from 10-800 pg/mL. A sample volume of 25 μL (in duplicate) is required for this assay. This immunoassay is specific for human and dog stresscopin and human urocortin III (h-UCN3). […] After completion of the analysis, based on a comparison of reference standards between the ELISA and HPLC method, a correction factor of 1.57 was applied to all bioanalytical data.
The effects of h-SCP (SEQ ID NO:1) on cardiovascular function were also assessed in anaesthetized dogs with advanced, irreversible heart failure of ischemic etiology (Sabbah et al., 1991, Am. J. Physiol., vol. 260, pp. H1379-H1384; Sabbah et al., 1994, Circulation, vol. 98, pp. 2852-2859; Chandler et al., 2002, Circ. Res., vol. 91, pp. 278-280). Progressive, advanced heart failure was produced in mongrel dogs by multiple sequential intracoronary microembolization with polystyrene latex microspheres. Dose infusions of 2.2, 4.3, and 7.3 ng/kg/min were administered intravenously over 60 minutes just following or just prior to hemodynamic, angiographic, echocardiographic, and Doppler measurements using conventional hemodynamic, angiographic, echocardiographic, and radiographic methods. The h-SCP polypeptide (SEQ ID NO:1) produced dose- (infusion-) dependent increases in LVEF and SV and decreases in left ventricular end diastolic pressure (LVEDP), left ventricular pressure during isovolumic relaxation (LV-dP/dt), systemic vascular resistance (SVR), and left ventricular end-systolic volume (LVESV) that correlated with plasma concentration. No significant change in heart rate, peak systolic aortic blood pressure, LV+dP/dt, mean pulmonary artery pressure, mean pulmonary artery wedge pressure, right atrial pressure, or myocardial oxygen consumption were recorded following any of the 1 hour intravenous infusions (Table 18 and FIGS. 12 A & B). The improvement in LV systolic and diastolic function was not associated with the development of de novo ventricular arrhythmias.
In order to determine the threshold effective dose-infusion in dogs with advanced heart failure, a further study was performed at lower dose infusions. In addition, the opportunity was taken to explore whether the increase in LVEF produced by higher dose-infusions of 4.3 ng/kg/min would remain stable over a longer infusion period, i.e. 120 minutes.

H-TKFTLSLDVPTNIMNLLFNIAKAKNLRAQAAANAHLMAQI-NH2 [SEQ ID NO: 1, TKFTLSLDVPTNIMNLLFNIAKAKNLRAQAAANAHLMAQI-NH2]
hemodynamic profile [1]: dose-dependent increases in heart rate, LV developed pressure (+dP/dt), and a corresponding decrease in blood pressure | CO (Cardiac output) ([2]; IV bolus 0.13 μg/kg): 2.19 L/min | HR (Heart rate) ([2]; IV bolus 0.13 μg/kg): 73 beats/min | LV dP/dt (LV contractility) ([2]; IV bolus 0.13 μg/kg): 1546 mmHg/sec | LVEDA (LV end diastolic area) ([2]; IV bolus 0.13 μg/kg): 12.9 cm^2 | LVEDV (LV end diastolic volume) ([2]; IV bolus 0.13 μg/kg): 55 mL | LVEF (LV ejection fraction) ([2]; IV bolus 0.13 μg/kg): 55% | LVESA (LV end systolic area) ([2]; IV bolus 0.13 μg/kg): 6.9 cm^2 | LVESV (LV end systolic volume) ([2]; IV bolus 0.13 μg/kg): 25 mL | LVFAS (LV fractional area of shortening) ([2]; IV bolus 0.13 μg/kg): 46% | PSAP (Peak systolic aortic pressure) ([2]; IV bolus 0.13 μg/kg): 92 mmHg | SV (Stroke volume) ([2]; IV bolus 0.13 μg/kg): 30 mL | increase in heart rate (largest change) ([2]; IV bolus 0.13 μg/kg to 13.1 μg/kg): 45% | CO (Cardiac output) ([2]; IV bolus 1.3 μg/kg): 2.56 L/min | HR (Heart rate) ([2]; IV bolus 1.3 μg/kg): 85 beats/min | LV dP/dt (LV contractility) ([2]; IV bolus 1.3 μg/kg): 1606 mmHg/sec | LVEDA (LV end diastolic area) ([2]; IV bolus 1.3 μg/kg): 12.7 cm^2 | LVEDV (LV end diastolic volume) ([2]; IV bolus 1.3 μg/kg): 54 mL | LVEF (LV ejection fraction) ([2]; IV bolus 1.3 μg/kg): 57% | LVESA (LV end systolic area) ([2]; IV bolus 1.3 μg/kg): 6.5 cm^2 | LVESV (LV end systolic volume) ([2]; IV bolus 1.3 μg/kg): 23 mL | LVFAS (LV fractional area of shortening) ([2]; IV bolus 1.3 μg/kg): 49% | PSAP (Peak systolic aortic pressure) ([2]; IV bolus 1.3 μg/kg): 91 mmHg | SV (Stroke volume) ([2]; IV bolus 1.3 μg/kg): 30 mL | CO (Cardiac output) ([2]; IV bolus 2.6 μg/kg): 2.72 L/min | HR (Heart rate) ([2]; IV bolus 2.6 μg/kg): 92 beats/min | LV dP/dt (LV contractility) ([2]; IV bolus 2.6 μg/kg): 1675 mmHg/sec | LVEDA (LV end diastolic area) ([2]; IV bolus 2.6 μg/kg): 12.5 cm^2 | LVEDV (LV end diastolic volume) ([2]; IV bolus 2.6 μg/kg): 52 mL | LVEF (LV ejection fraction) ([2]; IV bolus 2.6 μg/kg): 57% | LVESA (LV end systolic area) ([2]; IV bolus 2.6 μg/kg): 6.2 cm^2 | LVESV (LV end systolic volume) ([2]; IV bolus 2.6 μg/kg): 22 mL | LVFAS (LV fractional area of shortening) ([2]; IV bolus 2.6 μg/kg): 50% | PSAP (Peak systolic aortic pressure) ([2]; IV bolus 2.6 μg/kg): 90 mmHg | SV (Stroke volume) ([2]; IV bolus 2.6 μg/kg): 30 mL | CO (Cardiac output) ([2]; IV bolus 4.4 μg/kg): 2.80 L/min | HR (Heart rate) ([2]; IV bolus 4.4 μg/kg): 94 beats/min | LV dP/dt (LV contractility) ([2]; IV bolus 4.4 μg/kg): 1682 mmHg/sec | LVEDA (LV end diastolic area) ([2]; IV bolus 4.4 μg/kg): 12.4 cm^2 | LVEDV (LV end diastolic volume) ([2]; IV bolus 4.4 μg/kg): 51 mL | LVEF (LV ejection fraction) ([2]; IV bolus 4.4 μg/kg): 58% | LVESA (LV end systolic area) ([2]; IV bolus 4.4 μg/kg): 6.0 cm^2 | LVESV (LV end systolic volume) ([2]; IV bolus 4.4 μg/kg): 22 mL | LVFAS (LV fractional area of shortening) ([2]; IV bolus 4.4 μg/kg): 52% | PSAP (Peak systolic aortic pressure) ([2]; IV bolus 4.4 μg/kg): 90 mmHg | SV (Stroke volume) ([2]; IV bolus 4.4 μg/kg): 30 mL | CO (Cardiac output) ([2]; IV bolus 13.1 μg/kg): 2.86 L/min | HR (Heart rate) ([2]; IV bolus 13.1 μg/kg): 107 beats/min | LV dP/dt (LV contractility) ([2]; IV bolus 13.1 μg/kg): 1760 mmHg/sec | LVEDA (LV end diastolic area) ([2]; IV bolus 13.1 μg/kg): 11.4 cm^2 | LVEDV (LV end diastolic volume) ([2]; IV bolus 13.1 μg/kg): 46 mL | LVEF (LV ejection fraction) ([2]; IV bolus 13.1 μg/kg): 60% | LVESA (LV end systolic area) ([2]; IV bolus 13.1 μg/kg): 5.2 cm^2 | LVESV (LV end systolic volume) ([2]; IV bolus 13.1 μg/kg): 18 mL | LVFAS (LV fractional area of shortening) ([2]; IV bolus 13.1 μg/kg): 53% | PSAP (Peak systolic aortic pressure) ([2]; IV bolus 13.1 μg/kg): 88 mmHg | SV (Stroke volume) ([2]; IV bolus 13.1 μg/kg): 28 mL | level at 1 h (in vivo; 0.22 ng/kg/min): 0.0412 ± 0.0149 ng/mL | level at time molar at 1 h (in vivo; 0.22 ng/kg/min): 0.0094 ± 0.0034 nM | level at 1 h (in vivo; 0.43 ng/kg/min): 0.0372 ± 0.0139 ng/mL | level at time molar at 1 h (in vivo; 0.43 ng/kg/min): 0.0085 ± 0.0032 nM | level at 1 h (in vivo; 2.2 ng/kg/min): 0.141 ± 0.0182 ng/mL | level at time molar at 1 h (in vivo; 2.2 ng/kg/min): 0.0324 ± 0.0042 nM | level at 1 h (in vivo; 4.3 ng/kg/min): 0.178 ± 0.0211 ng/mL | level at 2 h (in vivo; 4.3 ng/kg/min): 0.249 ± 0.0479 ng/mL | level at time molar at 1 h (in vivo; 4.3 ng/kg/min): 0.0408 ± 0.0048 nM | level at time molar at 2 h (in vivo; 4.3 ng/kg/min): 0.057 ± 0.011 nM | level at 1 h (in vivo; 7.3 ng/kg/min): 0.279 ± 0.0296 ng/mL | level at time molar at 1 h (in vivo; 7.3 ng/kg/min): 0.0639 ± 0.0068 nM
